According to patent US20240368151A1, “NOVEL ERGOLINES AND METHODS OF TREATING MOOD DISORDERS” (priority 2021, published 2024):
Read-outs that look alike come from different tables or passages of the source.

Key:
[1] = Metabolic stability in mouse liver microsomes (MLM); assay type: in vitro ADME; details: NADPH; for half-life at 1 μM: mouse, pooled mouse liver microsomes, pH 7.4, MLM (CD-1)
Text: MLM Stability Pooled MLM from CD-1 mice (BIOIVT M00501) were used.

[2] = Metabolic stability in human liver microsomes (HLM); assay type: in vitro ADME; details: for half-life at 1 μM: both sexes, human, pooled human liver microsomes, pH 7.4, NADPH
Text: HLM Stability. Pooled HLM from adult male and female donors (Corning 452117) were used.

5-HT1A receptor = 5-HT1A receptor (Homo sapiens (Human), UniProt P08908); assay: FLIPR Ca^2+ flux agonist assay at 5-HT1A; assay type: cell-based; details: CHO cells
Experimental: (§1) Functional Assays at 5-HT2A, 5-HT2B, and 5-HT1A. Agonist activity at 5-HT2A, 5-HT2B, and 5-HT1A receptors was determined using a FLIPR Ca^2+ flux assay at WuXi AppTec (Hong Kong) Limited according to their standard protocols. Briefly, stably transfected cells expressing the receptor of interest (HEK293 for 5-HT2A and 5-HT2B; CHO cells for 5-HT1A) were grown and plated in a 384 well plate and incubated at 37° C. and 5% CO2 overnight. A solution of 250 mM probenecid in 1 mL FLIPR assay buffer was prepared fresh. This was combined with a fluorescent dye (Fluo-4 Direct™) to make a final assay concentration of 2.5 mM. […] The fluorescent dye was then added to the assay plate along with assay buffer to a final volume of 40 μL. The cell plate was incubated for 50 min at 37° C. and 5% CO2 and placed into the FLIPR Tetra along with the compound plate. 10p L of references and compounds were then transferred from the compound plate into the cell plate and the fluorescent signal was read.

human 5-HT2C receptor = human 5-HT2C receptor (Homo sapiens (Human), UniProt P28335); assay type: cell-based
human 5-HT2C receptor, sequence (P28335 33-458 limits assumed): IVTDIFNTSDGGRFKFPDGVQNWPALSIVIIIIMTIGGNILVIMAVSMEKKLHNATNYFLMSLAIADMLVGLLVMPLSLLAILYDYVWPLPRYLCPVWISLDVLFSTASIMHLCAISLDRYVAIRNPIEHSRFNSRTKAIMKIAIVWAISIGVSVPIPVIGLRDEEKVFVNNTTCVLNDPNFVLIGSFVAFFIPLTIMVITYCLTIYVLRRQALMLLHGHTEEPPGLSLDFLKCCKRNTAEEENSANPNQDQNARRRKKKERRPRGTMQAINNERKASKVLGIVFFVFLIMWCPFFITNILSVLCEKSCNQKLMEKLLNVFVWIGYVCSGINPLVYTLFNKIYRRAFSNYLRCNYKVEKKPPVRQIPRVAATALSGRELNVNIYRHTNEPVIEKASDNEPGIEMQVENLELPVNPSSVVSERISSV

5-HT2A receptor [3] = molecular target: T1, 5-HT2A receptor (Homo sapiens (Human), UniProt P28223); assay type: cell-based; details: beta-arrestin recruitment
Experimental: The degree of arrestin bias varied substantially across the other compounds tested as well.
Arrestin Functional Assay at 5-HT2A. Recruitment of beta-arrestin was determined using a PathHunter assay at Eurofins DiscoverX (Fremont, CA) according to their standard protocols. PathHunter GPCR beta-arrestin assays take advantage of DiscoverX's proprietary Enzyme Fragment Complementation technology. The GPCR is fused in frame with a small enzyme donor fragment ProLink™ (PK) and co-expressed in cells stably expressing a fusion protein of beta-arrestin and the larger, N-terminal deletion mutant of beta-galactosidase. Activation of the GPCR (5-HT2A receptor in this case) stimulates binding of beta-arrestin to the PK-tagged GPCR and forces complementation of the two enzyme fragments, resulting in the formation of an active beta-galactosidase enzyme. This interaction leads to an increase in enzyme activity that can be measured using chemiluminescent PathHunter Detection Reagents. Briefly, PathHunter cells expressing 5-HT2A receptors were seeded in a volume of 20 μL into 384-well plates and incubated at 37° C. for the appropriate time prior to testing. […] Plates were then imaged on a microplate reader and the agonist activity was calculated using the following formula: % Activity=100%×(mean RLU of test sample−mean RLU of vehicle control)/(mean MAX control ligand−mean RLU of vehicle control), where RLU=relative light units.

5-HT2B receptor = 5-HT2B receptor (Homo sapiens (Human), UniProt P41595); assay: FLIPR Ca^2+ flux agonist assay at 5-HT2B; assay type: cell-based; details: HEK293
5-HT2B receptor, sequence (P41595 whole entry, looked up): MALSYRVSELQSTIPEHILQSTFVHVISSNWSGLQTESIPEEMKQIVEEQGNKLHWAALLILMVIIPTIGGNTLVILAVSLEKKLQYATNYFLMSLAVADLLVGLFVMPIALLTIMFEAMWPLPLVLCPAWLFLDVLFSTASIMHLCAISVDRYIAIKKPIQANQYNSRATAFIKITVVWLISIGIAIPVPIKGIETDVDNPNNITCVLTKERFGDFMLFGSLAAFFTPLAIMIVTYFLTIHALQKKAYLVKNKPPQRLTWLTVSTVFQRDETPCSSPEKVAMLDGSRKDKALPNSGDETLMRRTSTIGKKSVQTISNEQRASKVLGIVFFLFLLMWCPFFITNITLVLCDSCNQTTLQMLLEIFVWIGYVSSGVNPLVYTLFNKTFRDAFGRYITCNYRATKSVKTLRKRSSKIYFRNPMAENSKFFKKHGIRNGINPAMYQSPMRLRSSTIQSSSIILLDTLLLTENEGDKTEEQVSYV
Experimental: as §1

5-HT2A receptor [4] = molecular target: T1, 5-HT2A receptor; assay type: cell-based; details: Ca^2+ flux, HEK293
Experimental: as §1

[5] = Metabolic stability in rat liver microsomes (RLM); assay type: in vitro ADME; details: for half-life at 1 μM: both sexes, rat, pooled rat liver microsomes, pH 7.4, NADPH
C57BL/6 mice = assay: Mouse head twitch response (HTR) assay; assay type: in vivo; details: mouse HTR, SC; for # HTR at Most Efficacious Dose / Emax (95% CI): 20 min observation; for Emax (95% CI): curve fit
Experimental: Agonists of the 5-HT2A receptor are well known to induce this effect in rodents and the potency of this HTR is correlated with hallucinogenic potency in humans.
Animals. Adult male C57BL/6 mice, aged 6-8 weeks (body weight 20-25 g) were used in this experiment. Animals were housed under controlled temperatures and 12-hour light/dark cycles (lights on between 07:00-19:00 h), with ad libitum food and water. This study was carried out in strict accordance with the requirements of the Committee for the Purpose of Control and Supervision of Experiments on Animals (CPCSEA), India. All efforts were made to minimize suffering.
Drugs and Drug Administration. Compound 1 was synthesized as described above. It was administered subcutaneously (SC) dissolved in saline vehicle at a volume of 10 mL/kg. Five doses were tested, with n=6 animals/group. Doses were calculated on the basis of the freebase.
Procedure. Mice were administered one dose of the drug and immediately placed into a small open field for behavioral observation. Animals were observed continuously for 20 mins and the number of head twitches (HTs) were counted by an observer blind to the treatment condition.
Statistical Analysis. The data points shown are the mean±standard error of the mean (SEM). Analysis was performed using GraphPad Prism 6. Curves were fit using a non-linear gaussian distribution to calculate ED50 and Emax values.
Additional disclosed compounds were tested in the mouse head twitch response (HTR) assay according to the procedure described in Example 34. […] Lastly, compounds with much larger benzyl and phenethyl substituents on the amine nitrogen (e.g., 10 and 11) were low efficacy in this assay, consistent with their lower maximal efficacy in the arrestin functional assay (see Example 32).

SMILES | half-life at 1 μM [1] [min] | half-life at 1 μM [2] [min] | 5-HT1A % Act @ Max Dose (5-HT1A receptor) [%] | 5-HT2C % Act @ Max Dose (human 5-HT2C receptor; Ca^2+ flux) [%] | 5-HT2A Arrestin % Act @ Max Dose (5-HT2A receptor [3]) [%] | 5-HT2B % Act @ Max Dose (5-HT2B receptor) [%] | 5-HT2A % Act @ Max Dose (5-HT2A receptor [4]) [%] | half-life at 1 μM [5] [min] | Clint ([1]; MLM (CD-1), 1 μM) [µL/min/mg] | t1/2 ([1]; MLM (CD-1), 1 μM) [min] | Clint ([2]; 1 μM, NADPH) [µL/min/mg] | t1/2 ([2]; 1 μM, NADPH) [min] | 5-HT2C % Act @ Max Dose (human 5-HT2C receptor) [%] | agonist type in the 5-HT2A arrestin recruitment assay, in words (5-HT2A receptor [3]) | Most Efficacious Dose (C57BL/6 mice) | # HTR at Most Efficacious Dose (C57BL/6 mice) | Emax (95% CI) (C57BL/6 mice) | Clint ([5]; 1 μM, NADPH) [µL/min/mg] | t1/2 ([5]; 1 μM, NADPH) [min]
CCC[C@@H](C)NC(=O)[C@H]1C=C2c3cccc4[nH]cc(c34)C[C@H]2N(C)C1 [Int17a, (6aR,9S)-7-methyl-N-((R)-pentan-2-yl)-4,6,6a,7,8,9-hexahydroindolo[4,3-fg]quinoline-9-carboxamide] | 1.58 | 4.58 | 88.52 | 112.06 | 43.729 | 5.63 | 63.31 | 1.96 |  |  |  |  |  |  |  |  |  |  | 
CC[C@@H](C)NC(=O)[C@H]1C=C2c3cccc4[nH]cc(c34)C[C@H]2N(CC)C1 [Compound 5a, (6aR,9S)-N-((R)-sec-butyl)-7-ethyl-4,6,6a,7,8,9-hexahydroindolo[4,3-fg]quinoline-9-carboxamide] | 1.7 | 5.5 | 111.65 | 99.4405 | 62.444 | 43.7 | 89.59 | 3.1 |  |  |  |  |  |  |  |  |  |  | 
CC[C@@H](C)NC(=O)[C@@H]1C=C2c3cccc4[nH]cc(c34)C[C@H]2N(CC)C1 [Compound 5] |  |  | 107.87 |  | 105.72 | 84.77 | 102.81 |  | 170.4 | 8.1 | 62.3 | 22.2 | 114.5 | full agonists | (0.32 mg/kg) | 17.667 | 15.22 | 72.0 | 19.3
CCC[C@@H](C)NC(=O)[C@@H]1C=C2c3cccc4[nH]cc(c34)C[C@H]2N(C)C1 [Int17, (6aR,9R)-7-methyl-N-((R)-pentan-2-yl)-4,6,6a,7,8,9-hexahydroindolo[4,3-fg]quinoline-9-carboxamide] | 8.25 | 15.9 | 113.04 | 102.19 | 38.809 | 25.49 | 91.47 | 27.9 |  |  |  |  |  | partial agonists | (0.32 mg/kg) |  | 4.96 |  | 
CCC(CC)NC(=O)[C@H]1C=C2c3cccc4[nH]cc(c34)C[C@H]2N(C)C1 [Int14a, (6aR,9S)-7-methyl-N-(pentan-3-yl)-4,6,6a,7,8,9-hexahydroindolo[4,3-fg]quinoline-9-carboxamide] | 1.7 | 3.35 | 70.27 | 119.28 | 44.321 | 1.86 | 32.98 | 1.8 |  |  |  |  |  |  |  |  |  |  | 
CCC[C@@H](C)NC(=O)[C@@H]1C=C2c3cccc4[nH]cc(c34)C[C@H]2N(CCC)C1 [Compound 7, (6aR,9R)-N-((R)-pentan-2-yl)-7-propyl-4,6,6a,7,8,9-hexahydroindolo[4,3-fg]quinoline-9-carboxamide] | 0.541 | 1.65 | 107.16 | 114.78 | 110.2 | 94.75 | 94.52 | 1.61 |  |  |  |  |  | full agonists | (1 mg/kg) | 16.667 | 720.4 |  | 
CCN(CC)C(=O)[C@H]1C=C2c3cccc4[nH]cc(c34)C[C@H]2N(CCCF)C1 [Compound 2a, (6aR,9S)-N,N-diethyl-7-(3-fluoropropyl)-4,6,6a,7,8,9-hexahydroindolo[4,3-fg]quinoline-9-carboxamide] | 1.78 | 17 | 96.77 | 118.85 | 83.328 | 40.13 | 90.29 | 9.67 |  |  |  |  |  |  |  |  |  |  | 
CCCN1C[C@@H](C(=O)N[C@H](C)CC)C=C2c3cccc4[nH]cc(c34)C[C@H]21 [Compound 3a, (6aR,9S)-N-((R)-sec-butyl)-7-propyl-4,6,6a,7,8,9-hexahydroindolo[4,3-fg]quinoline-9-carboxamide] | 0.6 | 2.2 | 108.14 | 108.705 | 112.91 | 52.81 | 92.04 | 1.4 |  |  |  |  |  |  |  |  |  |  | 
C[C@H]1C[C@H](C)N1C(=O)[C@@H]1C=C2c3cccc4[nH]cc(c34)C[C@H]2N(C)C1 [Int11, ((2S,4S)-2,4-dimethylazetidin-1-yl)((6aR, 9R)-7-methyl-4,6,6a,7,8,9-hexahydroindolo[4,3-fg]quinolin-9-yl)methanone] | 13.9 | 25.7 | 89.9 |  | 49.269 | 38.15 | 110.03 | 54.9 |  |  |  |  |  | partial agonists | (0.1 mg/kg) | 10.667 | 10.93 |  | 
CC[C@@H](C)NC(=O)[C@H]1C=C2c3cccc4[nH]cc(c34)C[C@H]2N(C)C1 [Int8a, (6aR,9S)-N-((R)-sec-butyl)-7-methyl-4,6,6a,7,8,9-hexahydroindolo[4,3-fg]quinoline-9-carboxamide] | 1.6 | 11.1 | 103.65 | 93.73 | 35.52 | 6.87 | 72.6 | 3.5 |  |  |  |  |  |  |  |  |  |  | 
C=CCN1C[C@@H](C(=O)N[C@H](C)CC)C=C2c3cccc4[nH]cc(c34)C[C@H]21 [Compound 8a, (6aR,9S)-7-allyl-N-((R)-sec-butyl)-4,6,6a,7,8,9-hexahydroindolo[4,3-fg]quinoline-9-carboxamide] | 0.8 | 3.4 | 90.34 | 13.314 | 81.117 | 35.71 | 87.45 | 1.7 |  |  |  |  |  |  |  |  |  |  | 
